The values below come from patent publication US20050033056A1, “Hydroxylated indole derivatives and uses thereof” (priority 2001, published 2005).

“Also recorded” adds a separate entry of the source. Like-named read-outs stand apart in the source and are kept apart here.

In one data set the test system is CYP3A4/5. As to the kind of experiment: CYP induction in primary human hepatocytes, Western immunoblotting: CYP3A4/5. Format: cell-based. As to conditions: 10 or 50 μM for 72 hours; hepatocytes from three donors. The method, then: (§1) Upon receiving a primary culture of human hepatocytes in 6-well plates, the culture medium containing streptomycin/penicillin was refreshed (2 ml/well). […] The culture medium and testing compounds were replenished every 24 hours.
(§2) At the end of the treatment, the cells were harvested into 1 mL of phosphate-buffered saline (PBS) after washing twice. The cells were precipitated by centrifugation, and were resuspended in PBS (approximately 50 μL).
(§3) The membrane was blocked by 5% non-fat dried milk (NFDM) blotting buffer (PBS containing 0.05% Tween 20) at 4° C. overnight. […] The membrane was rinsed six times (10 minutes each time) with the blotting buffer, and exposed to 1:10,000 diluted secondary antibodies labeled with horseradish peroxidase for 1 hour at room temperature. After being extensively rinsed with the blotting buffer, the membrane was exposed to the substrate of peroxidase (enhanced chemiluminescence reagent). CYP proteins were detected by […] using an X-ray developer.
In general terms: A western blot detects proteins with antibodies after separation by electrophoresis.

Another data set deals with CYP2C19/2C8/2C9. The data set can be described thus: CYP induction in primary human hepatocytes, Western immunoblotting: CYP2C19/2C8/2C9. As to conditions: 10 or 50 μM for 72 hours; hepatocytes from three donors. It counts as cell-based. The procedure:
as §1, §2, §3

Another data set deals with T1, CYP2E1 (Homo sapiens, UniProt P05181).
T1 construct: tissue Gentest Corp. (Woburn, Mass.); host or cells: pooled human liver microsomes
As to the kind of experiment: CYP inhibition in HLM: chlorzoxazone 6-hydroxylation. It counts as in vitro ADME. As to conditions: 10 or 50 μM. The procedure:
The incubations were carried out in test tubes (12.0×75 mm). The incubation mixtures (250 μL) contained 0.5 mg of HLM protein, 50 (CYP1A2 and CYP2E1) or 25 (CYP2C9, CYP2C19, CYP2D6 and CYP3A4) pmol of recombinant human CYPs, Compound 1 (10 or 50 μM), probe substrate (R—, S-warfarin, chlorzoxazone, S-mephenyloin, or bufuralol) at different concentrations, and 0.5 mg of NADPH in 50 mM Tris buffer containing 15 mM MgCl2 (pH 7.4). Compound 1 was added to the reaction mixture 5 minutes prior to the addition of the probe substrate. […]
The quantification was based on the calibration curves, and the quality control (QC) samples were applied to ensure the quality of the experiments. […]
2. […] 6-hydroxychlorzoxazone was monitored by UV at 280 nm.
Data were acquired and analyzed by ChemStation (Version 6.03, Hewlett Packard, Waldbronn, Germany) for 6-, 7-, and 10-hydroxywarfarin and 6-hydroxychlorzoxazone, and MacQuan (Version 1.6, PE Biosystem, Foster City, Calif.) for 1′-hydroxybufuralol and 4′-hydroxymephenytoin. Quantification was based on peak area ratios of metabolites over the respective IS against the respective concentration of the metabolites. […] The metabolic rates were determined using Excel (Microsoft Office 97, Microsoft Corporation, Redmond, Wash.) or SigmaPlot (Version 6.00, SPSS Inc. Chicago, Ill.). […]

The target of data set [1] is T2, cDNA-expressed recombinant CYP2C19 (Homo sapiens, UniProt P33261).
T2 construct: purchased Gentest Corp. (Woburn, Mass.); host or cells: insect cells (microsomal preparation)
As to the kind of experiment: Apparent Ki with recombinant CYP2C19 (S-mephenyloin 4'-hydroxylation; Dixon plots, SNLR). Format: in vitro ADME. As to conditions: for Ki: recombinant CYP2C19. The method, then:
If inhibition was detected, the inhibitory potency was determined using recombinant CYPs. Compound 1 appeared to inhibit the activities of CYP2D6 and CYP2C19. Therefore, three concentrations of S-mephenyloin (30, 80, and 200 μM) and bufuralol (5, 10, and 40 μM), and a range of concentrations (0-200 μM) of Compound 1 were used for the construction of Dixon plots and simultaneously nonlinear regression (SNLR) analyses were performed. The incubation conditions and sample preparations were the same as previously described.
4. CYP2C19-mediated S-mephenyloin 4′-hydroxylation (Goldstein et al., Biochemistry 33:1743-1752, 1994): The LC/MS/MS system, including the separation column, described for the bufuralol hydroxylation was used. The isocratic mobile phase, 100 mM formic acid-acetonitrile/75:25, was run at 0.25 ml/minutes. The operation of the LC/MS/MS was controlled by MacChrom (Version 1.6). The MS/MS was operated at positive ESI with a 5.5 kV ionization potential and 100° C. ion source temperature. MRM was applied for the quantification. The MRM transition ions were m/z 235→150 for 4′-hydroxymephenytoin, and m/z […] for the IS R-propranolol.
Data were acquired and analyzed by ChemStation (Version 6.03, Hewlett Packard, Waldbronn, Germany) for 6-, 7-, and 10-hydroxywarfarin and 6-hydroxychlorzoxazone, and MacQuan (Version 1.6, PE Biosystem, Foster City, Calif.) for 1′-hydroxybufuralol and 4′-hydroxymephenytoin. Quantification was based on peak area ratios of metabolites over the respective IS against the respective concentration of the metabolites. The standard curves were generated by linear regression with (6-, 7-, and 10-hydroxywarfarin, 1′-hydroxybufuralol, and 4′-hydroxymephenytoin) or without (6-hydroxychlorzoxazone) a weighting factor (1/x^2). The metabolic rates were determined using Excel (Microsoft Office 97, Microsoft Corporation, Redmond, Wash.) or SigmaPlot (Version 6.00, SPSS Inc. Chicago, Ill.). […]

T2 sequence (P33261 whole entry): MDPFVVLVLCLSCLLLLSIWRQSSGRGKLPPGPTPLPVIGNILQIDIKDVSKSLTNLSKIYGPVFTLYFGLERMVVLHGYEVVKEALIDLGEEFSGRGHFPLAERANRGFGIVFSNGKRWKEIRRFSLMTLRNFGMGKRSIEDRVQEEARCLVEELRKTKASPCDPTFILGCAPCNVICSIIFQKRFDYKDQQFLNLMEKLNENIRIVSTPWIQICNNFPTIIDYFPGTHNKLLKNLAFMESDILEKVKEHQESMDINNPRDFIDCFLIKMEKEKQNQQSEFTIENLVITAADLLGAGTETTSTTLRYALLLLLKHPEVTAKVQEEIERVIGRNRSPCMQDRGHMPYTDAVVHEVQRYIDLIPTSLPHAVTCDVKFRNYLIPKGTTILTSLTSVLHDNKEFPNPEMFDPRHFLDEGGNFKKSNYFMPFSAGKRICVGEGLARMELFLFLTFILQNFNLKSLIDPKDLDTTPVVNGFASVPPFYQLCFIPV
T1 sequence (P05181 whole entry): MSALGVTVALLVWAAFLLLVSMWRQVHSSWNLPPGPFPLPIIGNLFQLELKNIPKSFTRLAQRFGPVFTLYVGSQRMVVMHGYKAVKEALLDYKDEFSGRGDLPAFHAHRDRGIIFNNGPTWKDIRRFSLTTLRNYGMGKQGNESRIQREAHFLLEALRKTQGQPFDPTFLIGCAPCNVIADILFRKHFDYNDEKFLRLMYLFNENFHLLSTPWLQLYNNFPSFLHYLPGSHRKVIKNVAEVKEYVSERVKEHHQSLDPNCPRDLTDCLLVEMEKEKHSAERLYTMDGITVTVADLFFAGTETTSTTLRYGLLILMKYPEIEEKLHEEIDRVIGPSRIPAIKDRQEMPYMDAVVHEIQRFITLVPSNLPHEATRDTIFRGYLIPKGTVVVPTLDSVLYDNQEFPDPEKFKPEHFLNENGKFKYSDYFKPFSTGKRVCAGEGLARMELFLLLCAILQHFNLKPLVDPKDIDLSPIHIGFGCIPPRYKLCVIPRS

For the molecule `CNC(=O)Cc1ccc2ccn(C3CCN(CCc4ccccc4F)CC3)c2c1` [Compound 1, N-methyl-[1-[1-(2-fluorophenethyl)piperidine-4-yl]-1H-indol-6-yl] acetamide], the “expression of CYP3A4/5 (Western immunoblotting)” value with CYP3A4/5 is reported as “did not increase”. Moreover, the “expression of CYP2C19/2C8/2C9 (Western immunoblotting)” value with CYP2C19/2C8/2C9 is recorded as “did not increase”. The “inhibitory effect on CYP2E1 activity (in words)” value at CYP2E1 is listed as “no inhibitory effect”. The “type of inhibition of CYP2C19” value in data set [1] (Dixon plots and SNLR analyses) was “competitive inhibitor; also recorded: primarily, if not fully, competitive”. In addition, the Ki in data set [1] (Dixon plots, S-mephenyloin 30, 80, 200 μM, read-out: apparent Ki, CYP2C19, estimated by Dixon plots) was 25 to 45 µM; in data set [1] (SNLR, competitive inhibition model, read-out: apparent Ki, CYP2C19 inhibition, determined by SNLR), 48 µM.
